Reference: PubChem BioAssay (NCI)
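Values below derive from 48-hour exposures of cells grown in 96-well plates, with endpoints linearly interpolated between the two concentrations bracketing the appropriate inhibition level. Definition used: TGI = concentration required for complete inhibition of growth.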

Assays:
Experiment in all cases: NCI anticancer screen, dose series, 48 h
MDA-N = system: MDA-N
CAKI-1 renal = system: CAKI-1 renal
NCI/ADR-RES ovarian = system: NCI/ADR-RES ovarian
SK-MEL-28 melanoma = system: SK-MEL-28 melanoma
SF-268 CNS = system: SF-268 CNS
RXF 393 renal = system: RXF 393 renal
MDA-MB-231 breast = system: MDA-MB-231 breast
RPMI-8226 leukemia = system: RPMI-8226 leukemia
HOP-62 NSCLC = system: HOP-62 NSCLC
SK-MEL-5 melanoma = system: SK-MEL-5 melanoma
T-47D breast = system: T-47D breast
IGROV1 ovarian = system: IGROV1 ovarian
SN12C renal = system: SN12C renal
SR leukemia = system: SR leukemia
COLO 205 colon = system: COLO 205 colon
OVCAR-5 ovarian = system: OVCAR-5 ovarian
TK-10 renal = system: TK-10 renal
HCT-116 colon = system: HCT-116 colon
DU-145 prostate = system: DU-145 prostate
ACHN renal = system: ACHN renal
UACC-257 melanoma = system: UACC-257 melanoma
MOLT-4 leukemia = system: MOLT-4 leukemia
UO-31 renal = system: UO-31 renal
KM12 colon = system: KM12 colon
MDA-MB-435 = system: MDA-MB-435
NCI-H23 lung = system: NCI-H23 lung
786-0 renal = system: 786-0 renal
HOP-92 NSCLC = system: HOP-92 NSCLC
NCI-H460 lung = system: NCI-H460 lung
NCI-H226 lung = system: NCI-H226 lung
NCI-H522 lung = system: NCI-H522 lung
SNB-19 CNS = system: SNB-19 CNS
MALME-3M melanoma = system: MALME-3M melanoma
K-562 leukemia = system: K-562 leukemia
SW-620 colon = system: SW-620 colon
U251 CNS = system: U251 CNS
MCF7 breast = system: MCF7 breast
SK-OV-3 ovarian = system: SK-OV-3 ovarian
A498 renal = system: A498 renal
SNB-75 CNS = system: SNB-75 CNS
EKVX NSCLC = system: EKVX NSCLC
CCRF-CEM leukemia = system: CCRF-CEM leukemia
OVCAR-3 ovarian = system: OVCAR-3 ovarian
LOX IMVI melanoma = system: LOX IMVI melanoma
HL-60(TB) leukemia = system: HL-60(TB) leukemia
SK-MEL-2 melanoma = system: SK-MEL-2 melanoma
A549 NSCLC = system: A549 NSCLC
HS 578T breast = system: HS 578T breast
SF-295 CNS = system: SF-295 CNS
PC-3 prostate = system: PC-3 prostate
HT29 colon = system: HT29 colon
OVCAR-4 ovarian = system: OVCAR-4 ovarian
SF-539 CNS = system: SF-539 CNS
M14 melanoma = system: M14 melanoma
HCT-15 colon = system: HCT-15 colon
OVCAR-8 ovarian = system: OVCAR-8 ovarian
HCC-2998 colon = system: HCC-2998 colon

Measured: TGI

CCOc1ccnc2c(OC)c(C)c3nc4ccccc4nc3c12
67 µM: T-47D breast
> 100 µM: MDA-N | CAKI-1 renal | NCI/ADR-RES ovarian | SK-MEL-28 melanoma | SF-268 CNS | RXF 393 renal | MDA-MB-231 breast | RPMI-8226 leukemia | HOP-62 NSCLC | SK-MEL-5 melanoma | IGROV1 ovarian | SN12C renal | SR leukemia | COLO 205 colon | OVCAR-5 ovarian | TK-10 renal | HCT-116 colon | DU-145 prostate | ACHN renal | UACC-257 melanoma | MOLT-4 leukemia | UO-31 renal | KM12 colon | MDA-MB-435 | NCI-H23 lung | 786-0 renal | HOP-92 NSCLC | NCI-H460 lung | NCI-H226 lung | NCI-H522 lung | SNB-19 CNS | MALME-3M melanoma | K-562 leukemia | SW-620 colon | U251 CNS | MCF7 breast | SK-OV-3 ovarian | A498 renal | SNB-75 CNS | EKVX NSCLC | CCRF-CEM leukemia | OVCAR-3 ovarian | LOX IMVI melanoma | HL-60(TB) leukemia | SK-MEL-2 melanoma | A549 NSCLC | HS 578T breast | SF-295 CNS | PC-3 prostate | HT29 colon | OVCAR-4 ovarian | SF-539 CNS | M14 melanoma | HCT-15 colon | OVCAR-8 ovarian | HCC-2998 colon

Cc1cccc2c1CC1(Cc3c(C)cccc3C1=O)C2=O
> 100 µM: MDA-N | CAKI-1 renal | NCI/ADR-RES ovarian | SK-MEL-28 melanoma | SF-268 CNS | RXF 393 renal | MDA-MB-231 breast | RPMI-8226 leukemia | HOP-62 NSCLC | SK-MEL-5 melanoma | T-47D breast | IGROV1 ovarian | SR leukemia | OVCAR-5 ovarian | TK-10 renal | HCT-116 colon | DU-145 prostate | ACHN renal | UACC-257 melanoma | MOLT-4 leukemia | UO-31 renal | MDA-MB-435 | NCI-H23 lung | 786-0 renal | HOP-92 NSCLC | NCI-H460 lung | NCI-H522 lung | SNB-19 CNS | MALME-3M melanoma | K-562 leukemia | SW-620 colon | U251 CNS | MCF7 breast | SK-OV-3 ovarian | A498 renal | SNB-75 CNS | EKVX NSCLC | CCRF-CEM leukemia | OVCAR-3 ovarian | LOX IMVI melanoma | HL-60(TB) leukemia | SK-MEL-2 melanoma | A549 NSCLC | HS 578T breast | SF-295 CNS | PC-3 prostate | HT29 colon | OVCAR-4 ovarian | SF-539 CNS | M14 melanoma | HCT-15 colon | OVCAR-8 ovarian | HCC-2998 colon
